The values below come from patent publication US20070227930A1, “Antimicrobial Product Combination” (priority 2006, published 2007).

For this assay, the system named is allergens. Nature of the assay: Evaluation of oxidants and antimicrobials for allergen deactivating ability. The settings on record: very dilute solution, on the order of 40-80 ppm. The text has this:
Presumably the low levels of oxidant are still able to break up the allergen proteins, rendering them biologically inert.

`OCl` [hypochlorous acid]: the Allergen deactivating ability result is “effectively deactivate allergens”.
